pKi: −log10 of the molar value.
Columns and labels:
Type in all cases: biochemical
recombinant human MMP-12 = target: T1, recombinant human MMP-12 (Homo sapiens, UniProt P39900); assay: MMP-12 enzyme assay (FRET substrate)
T1 construct: purchased R&D Systems; host or cells: mouse myeloma cell line NS-40 (so in the source)
Procedure: A typical MMP-12 enzyme assay employs recombinant human MMP-12 catalytic domain expressed and purified as described by Parkar A. A. et al, (2000), Protein Expression and Purification, 20:152. The purified enzyme can be used to monitor inhibitors of activity as follows: MMP-12 (50 ng/ml final concentration) is incubated for 60 minutes at room temperature with the synthetic substrate Mac-Pro-Cha-Gly-Nva-His-Ala-Dpa-NH2 in assay buffer (0.1M “Tris-HCl” (trade mark) buffer, pH 7.3 containing O.1M NaCl, 20 mM CaCl2, 0.020 mM ZnCl and 0.05% (w/v) “Brij 35” (trade mark) detergent) in the presence (5 concentrations) or absence of inhibitors. Activity is determined by measuring the fluorescence at λex 320 nm and λem 405 nm. Percent inhibition is calculated as follows: % Inhibition is equal to the (Fluorescenceplus inhibitor−Fluorescencebackground); divided by the (Fluorescenceminus inhibitor−Fluorescencebackground);
A favoured assay employs full length recombinant human MMP-12, amino acid residues 1 to 470 (Shapiro et al 1993, J Biol Chem 268:23824-23829) expressed in mouse myeloma cell line NS-40. The purified rhMMP-12 typically has the N terminal sequence L17PLNSSTSLE and an SDS-PAGE apparent molecular mass of approx. 56 kDa. Such proteins are available from R&D Systems, USA as a lyophilised 0.2 um filtered solution of 25 mM MES, 0.15M NaCl, 10 mMCaCl2, 0.15% Brij 35, pH 5.5. Auto-activation of the rhMMP-12 can be achieved by dilution to 0.05 mg/ml into TCNB buffer (50 mMTris, 10 mM CaCl2, 0.15M NaCl, 0.05% Brij 35, pH 7) and incubation at 37 degrees for 30 hours. A preferred buffer for MMP work is 50 mM Tris.HCl, pH 7.5, 200 mM Ca acetate.
Suitable FRET substrates include (7-methoxycoumarin-4-yl)acetyl-Pro-Leu-Gly-Leu-(3-(2,4-dinitrophenoyl)-L-2,3-diaminopropionyl)-Ala-Arg-NH2, commercially available from R&D Systems, USA. Typical specific activities are >500 picomol/min/ug, with rhMMP-12 measured with 10 uM of this substrate, 20 ng activated enzyme in 100 ul TCNB buffer at room temperature.
An alternative general MMP substrate is Dnp-PLGLWAD-R-NH2.
Category A indicates ≦50 nM inhibition, category B indicates 51-200 nM inhibition and category C indicates >200 nM: […]

recombinant human TACE = target: T2, recombinant human TACE (Homo sapiens, UniProt P78536); assay: TACE enzyme assay (FRET substrate), selectivity versus MMP-12; settings: fold difference in Ki for TACE compared to MMP-12
T2 construct: purchased R&D Systems
T2 sequence (P78536 215-824): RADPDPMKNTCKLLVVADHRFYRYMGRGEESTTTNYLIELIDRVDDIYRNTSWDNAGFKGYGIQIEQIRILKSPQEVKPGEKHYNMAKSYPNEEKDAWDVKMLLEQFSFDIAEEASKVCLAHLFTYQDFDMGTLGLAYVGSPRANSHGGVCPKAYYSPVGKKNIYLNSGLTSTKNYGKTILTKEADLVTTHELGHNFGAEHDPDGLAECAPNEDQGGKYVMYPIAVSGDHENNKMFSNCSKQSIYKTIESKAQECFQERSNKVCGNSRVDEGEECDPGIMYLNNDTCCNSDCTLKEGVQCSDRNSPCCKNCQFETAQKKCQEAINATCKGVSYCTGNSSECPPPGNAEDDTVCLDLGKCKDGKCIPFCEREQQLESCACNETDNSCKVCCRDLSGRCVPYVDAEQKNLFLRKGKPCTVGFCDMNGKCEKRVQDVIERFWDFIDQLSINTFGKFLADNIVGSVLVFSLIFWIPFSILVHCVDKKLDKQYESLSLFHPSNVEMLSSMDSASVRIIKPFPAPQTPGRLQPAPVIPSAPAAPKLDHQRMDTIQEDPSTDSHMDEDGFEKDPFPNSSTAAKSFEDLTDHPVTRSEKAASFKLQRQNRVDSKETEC
Procedure: The activity was measured by a continuous detection of increased fluorescence intensity during 12 min. The substrate consisted of a peptide with a fluorescent donor 7-methoxycoumarin (Mca) and a quenching acceptor 2,4-dinitrophenyl group (Dpa), typically Mca-P-L-A-Q-A-V-Dpa-R-S-S-S-R-NH2 (R&D Systems, ES003). The cleavage site by TACE is the peptide bond between Ala and Val. The compounds were tested at a range of concentrations while the enzyme and substrate concentrations were fixed. A typical TACE assay employs recombinant human TACE (supplied by R&D Systems) in an assay buffer (25 mM Tris-HCl, pH=9.0, 2.5 μM ZnCl2, 0.005% Brij 35). The enzyme concentration (TACE) used was 100 ng/ml, the substrate was prepared at a 100 μM stock solution in DMSO and a 96-well polypropylene plate was used for the reaction mixtures. To each well of the plate was added assay buffer 90.0 μl, enzyme (TACE) 0.09 μl and inhibitor 1 μl. The reactions were started by addition of substrate 10 μl/well, giving a substrate concentration of 10 μM and a total volume of 100 μl/well. The total concentration of DMSO was not above 1%. The assay was performed at ambient temperature. Product fluorescence ([…]) was monitored with a Thermo Labsystems Fluoroskan Ascent plate reader. The Ki was determined by Prism Software.
(§1) The selectivity for MMP-12 over MMP-3 and TACE was evaluated for a representative selection of the compounds of the invention by comparing the Ki figures obtained when tested in the corresponding enzyme assays, such as those described above. The selectivity is presented as the fold difference in Ki for TACE and MMP-3 compared to MMP-12 and is calculated as the ratio Ki(TACE)/KiMMP-12 and Ki(MMP-3)/KiMMP-12 respectively.

recombinant human MMP-3 = target: T3, recombinant human MMP-3 (Homo sapiens, UniProt P08254); assay: MMP-3 enzyme assay (FRET substrate), selectivity versus MMP-12; settings: fold difference in Ki for MMP-3 compared to MMP-12
T3 construct: purchased R&D Systems
T3 sequence (P08254 100-477): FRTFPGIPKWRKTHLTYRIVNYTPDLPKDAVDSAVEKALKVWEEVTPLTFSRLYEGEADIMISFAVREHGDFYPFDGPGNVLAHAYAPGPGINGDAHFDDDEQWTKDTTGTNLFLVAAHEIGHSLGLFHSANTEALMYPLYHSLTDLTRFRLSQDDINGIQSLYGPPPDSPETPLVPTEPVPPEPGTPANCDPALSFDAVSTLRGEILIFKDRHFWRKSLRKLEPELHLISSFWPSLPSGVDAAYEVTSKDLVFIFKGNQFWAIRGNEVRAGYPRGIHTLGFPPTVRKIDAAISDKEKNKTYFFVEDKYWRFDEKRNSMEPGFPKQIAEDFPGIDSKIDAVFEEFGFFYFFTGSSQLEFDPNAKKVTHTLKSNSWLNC
Procedure: The activity was measured by a continuous detection of increased fluorescence intensity during 12 min. The substrate consisted of a peptide with a fluorescent donor 7-methoxycoumarin (Mca) and a quenching acceptor 2,4-dinitrophenyl group (Dpa), typically Mca-Arg-Pro-Lys-Pro-Val-Glu-Nval-Trp-Arg-Lys(Dnp)-NH2 (R&D Systems, ES002). The cleavage site by MMP-3 is the peptide bond between Glu and Nval. The compounds were tested at a range of concentrations, the enzyme concentration (MMP-3) was fixed at 400 ng/ml and the substrate concentrations was 10 μM. The MMP-3 assay used employs recombinant human MMP-3 (supplied by R&D Systems) in an assay buffer of 50 mM Tris-HCl, 200 mM calcium acetate at pH=7.5. The MMP-3 enzyme was preactivated by dilution to 0.119 mg/ml into 1 mM APMA (p-aminophenylmercuric acetate) followed by incubation at 37° C. for 24 hours. The substrate was prepared at a 100 μM stock solution in DMSO and a 96-well polypropylene plate was used for the reaction mixtures. To each well of the plate was added assay buffer 90.0 μl, enzyme (MMP-3) 0.3 μl and inhibitor 1 μl. The reactions were started by addition of substrate, 10 μl/well, to a total volume of 100 μl/well. The total concentration of DMSO was not above 1%. The assay was performed at ambient temperature. Product fluorescence ([…]) was monitored with a Thermo Labsystems Fluoroskan Ascent plate reader. The Ki was determined by Prism Software.
as §1

T1 sequence (P39900 106-470): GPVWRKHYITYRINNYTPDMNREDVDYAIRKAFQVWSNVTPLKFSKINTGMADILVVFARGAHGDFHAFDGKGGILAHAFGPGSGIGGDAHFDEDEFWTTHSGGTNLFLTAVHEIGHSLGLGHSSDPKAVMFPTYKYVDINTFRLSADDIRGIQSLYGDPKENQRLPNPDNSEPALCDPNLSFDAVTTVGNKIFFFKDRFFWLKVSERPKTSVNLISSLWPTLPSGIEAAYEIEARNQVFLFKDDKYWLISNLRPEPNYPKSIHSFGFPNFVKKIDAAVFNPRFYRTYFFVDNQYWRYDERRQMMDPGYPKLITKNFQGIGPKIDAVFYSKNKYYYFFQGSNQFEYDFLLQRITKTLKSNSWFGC

Q: Which results are given for `CC(C)[C@H](C(=O)NO)N1C(=O)N[C@@H](CCc2ccc(F)cc2)C1=O` [Example 38, 2-{4-[2-(4-Fluoro-phenyl)-ethyl]-2,5-dioxoimidazolidin-1-yl}-N-hydroxy-3-methylbutyramide]?
A: pKi (recombinant human MMP-12): ≥ 7.30; Ki(TACE)/Ki(MMP-12) (recombinant human TACE): 390; Ki(MMP-3)/Ki(MMP-12) (recombinant human MMP-3): 150
